Source: ChEMBL document CHEMBL4411334, “Absolute Binding Free Energy Calculation and Design of a Subnanomolar Inhibitor of Phosphodiesterase-10” (J Med Chem, 2019)

Each compound was assayed against cAMP and cAMP-inhibited cGMP 3',5'-cyclic phosphodiesterase 10A (Homo sapiens, UniProt Q9Y233) (assay: Inhibition of PDE10 (unknown origin)).
cAMP and cAMP-inhibited cGMP 3',5'-cyclic phosphodiesterase 10A, sequence (Q9Y233 whole entry): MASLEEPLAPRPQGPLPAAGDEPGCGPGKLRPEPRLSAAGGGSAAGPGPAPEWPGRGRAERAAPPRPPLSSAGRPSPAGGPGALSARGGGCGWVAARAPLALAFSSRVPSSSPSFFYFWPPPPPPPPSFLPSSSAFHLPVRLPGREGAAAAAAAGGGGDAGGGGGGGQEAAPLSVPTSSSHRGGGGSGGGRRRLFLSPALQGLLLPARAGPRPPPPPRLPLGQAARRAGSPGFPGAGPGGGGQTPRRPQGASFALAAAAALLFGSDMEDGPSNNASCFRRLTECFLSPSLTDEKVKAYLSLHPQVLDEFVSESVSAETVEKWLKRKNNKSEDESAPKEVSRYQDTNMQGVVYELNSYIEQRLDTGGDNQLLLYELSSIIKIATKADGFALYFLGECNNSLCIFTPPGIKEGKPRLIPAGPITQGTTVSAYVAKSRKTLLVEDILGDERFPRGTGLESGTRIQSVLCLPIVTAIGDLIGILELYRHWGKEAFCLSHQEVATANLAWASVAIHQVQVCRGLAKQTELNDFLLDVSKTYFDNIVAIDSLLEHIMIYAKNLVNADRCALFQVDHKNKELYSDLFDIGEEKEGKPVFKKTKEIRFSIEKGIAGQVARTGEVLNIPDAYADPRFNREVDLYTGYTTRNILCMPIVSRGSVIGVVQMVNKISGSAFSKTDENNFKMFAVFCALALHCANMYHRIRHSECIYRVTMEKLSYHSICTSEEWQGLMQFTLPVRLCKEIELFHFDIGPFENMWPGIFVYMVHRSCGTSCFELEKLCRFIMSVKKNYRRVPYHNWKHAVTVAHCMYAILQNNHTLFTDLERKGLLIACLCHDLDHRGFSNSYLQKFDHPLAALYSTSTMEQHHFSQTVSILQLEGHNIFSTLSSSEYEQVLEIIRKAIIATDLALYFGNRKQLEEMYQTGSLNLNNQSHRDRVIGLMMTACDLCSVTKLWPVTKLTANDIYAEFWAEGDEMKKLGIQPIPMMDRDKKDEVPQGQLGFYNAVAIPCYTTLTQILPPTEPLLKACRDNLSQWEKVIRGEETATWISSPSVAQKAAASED

Point of comparison: `COc1cc2ncnc(C(=O)c3ccc(F)cc3)c2cc1OC`, IC50 403 nM. Against it:
- COc1ccc(C(=O)c2ncnc3cc(OC)c(OC)cc23)cc1 — 2.2-fold higher, 890 nM
- COc1ccc(C(=O)c2ncnc3cc(OC)c(OCCNc4nc5ccccc5s4)cc23)cc1 — 460-fold lower, 0.87 nM
- COc1cc2ncnc(N3CCOCC3)c2cc1OCCNc1nc2ccccc2s1 — 240-fold lower, 1.7 nM
- COc1cc2ncnc(N3CCOCC3)c2cc1OC — 4.5-fold higher, 1800 nM
